Source: ChEMBL document CHEMBL1127916, “Synthesis and biological character of 1-hydroxylated vitamin D3 Analogues” (1994)

Experiments:
[1] = biological target: T1, Vitamin D-binding protein (Rattus norvegicus) (UniProt P04276); test: Relative binding potency for rat vitamin D binding protein (DBP) by competitive displacement with [3H]1-alpha,25(OH)2D3
T1 sequence (whole entry): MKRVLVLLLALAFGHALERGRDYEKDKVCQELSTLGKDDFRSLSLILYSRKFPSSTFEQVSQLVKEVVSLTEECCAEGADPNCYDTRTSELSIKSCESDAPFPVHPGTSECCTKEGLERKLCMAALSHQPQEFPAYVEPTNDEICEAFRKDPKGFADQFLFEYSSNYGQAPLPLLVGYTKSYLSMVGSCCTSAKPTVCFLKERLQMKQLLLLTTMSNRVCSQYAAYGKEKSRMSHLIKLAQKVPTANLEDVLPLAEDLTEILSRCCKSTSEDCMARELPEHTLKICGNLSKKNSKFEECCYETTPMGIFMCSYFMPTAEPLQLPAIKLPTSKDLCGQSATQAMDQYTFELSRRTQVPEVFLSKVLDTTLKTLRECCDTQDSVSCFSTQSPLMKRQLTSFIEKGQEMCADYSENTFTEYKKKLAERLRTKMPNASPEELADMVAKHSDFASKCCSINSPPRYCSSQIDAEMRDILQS

[2] = biological target: T2, Vitamin D3 receptor (Bos taurus) (UniProt Q28037); test: Relative binding for bovine thymus vitamin D receptor (VDR) by displacement with [3H]1-alpha,25(OH)2D3
T2 sequence (whole entry): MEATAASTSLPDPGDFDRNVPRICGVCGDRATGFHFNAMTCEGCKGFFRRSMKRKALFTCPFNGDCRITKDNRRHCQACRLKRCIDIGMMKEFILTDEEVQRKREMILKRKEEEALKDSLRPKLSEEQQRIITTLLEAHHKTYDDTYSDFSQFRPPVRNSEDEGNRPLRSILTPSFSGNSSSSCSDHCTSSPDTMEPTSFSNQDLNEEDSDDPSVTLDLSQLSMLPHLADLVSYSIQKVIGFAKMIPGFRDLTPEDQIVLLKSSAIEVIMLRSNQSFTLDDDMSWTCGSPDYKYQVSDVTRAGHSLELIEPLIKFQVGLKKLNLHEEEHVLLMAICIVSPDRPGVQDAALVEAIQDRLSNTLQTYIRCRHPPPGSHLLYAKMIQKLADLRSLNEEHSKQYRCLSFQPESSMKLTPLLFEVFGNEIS

HL-60 = test: Antiproliferative activity in human promyeloid leukemia cells (HL-60); type: functional

C=C1/C(=C\C=C2/CCC[C@]3(C)[C@@H]([C@H](C)CCCC(C)(C)O)CC[C@@H]23)C[C@@H](O)C[C@@H]1O [CALCITRIOL]
Relative binding potency [1]: 1 | Relative binding potency [2]: 1 | Relative potency (HL-60): 1

C=C1/C(=C\C=C2/CCC[C@@]3(C)C2CC[C@@H]3[C@H](C)CCCC(C)(C)O)C[C@@H](O)[C@@H](OCCCO)[C@@H]1O (stereo partly specified)
Relative binding potency [1]: 4.1 | Relative binding potency [2]: 0.7

C=C1/C(=C\C=C2/CCC[C@@]3(C)C2CC[C@@H]3[C@H](C)CCCC(C)(C)O)C[C@@H](O)C[C@H]1O (stereo partly specified)
Relative binding potency [1]: 2.9 | Relative binding potency [2]: 0.2 | Relative potency (HL-60): 0.2

C=C1/C(=C\C=C2/CCC[C@@]3(C)C2CC[C@@H]3[C@H](C)CCCC(C)(C)O)C[C@@H](O)[C@@H](OCCCO)[C@H]1O (stereo partly specified)
Relative binding potency [1]: 6.7 | Relative binding potency [2]: 0.003

C=C1/C(=C\C=C2/CCC[C@]3(C)[C@@H]([C@H](C)OCCC(C)(C)O)CC[C@@H]23)C[C@@H](O)C[C@@H]1O [MAXACALCITOL]
Relative binding potency [1]: 0.002 | Relative binding potency [2]: 0.6 | Relative potency (HL-60): 3.1

C=C1/C(=C\C=C2/CCC[C@@]3(C)C2CC[C@@H]3[C@H](C)OCCC(C)(C)O)C[C@@H](O)C[C@H]1O (stereo partly specified)
Relative binding potency [1]: 0.007 | Relative binding potency [2]: 0.007 | Relative potency (HL-60): 0.003
